# Experimental data taken from US11312727B1, “Macrocyclic flu endonuclease inhibitors” (Janssen BioPharma, Inc., priority 2018, dated 2022).
# Tests used:
# in vitro = details: human, CC50, uninfected A549 cells, CellTiter-Glo
# [1] = system: Influenza strain A549 A/WSN/33 (H1N1); assay: microbe, parasite or virus in culture; assay type: cell-based; details: Influenza A virus, A549, 20 h, A549 cells, influenza A/WSN/33 (H1N1), 20 hours incubation; read-out: A549_A(H1N1) EC50
Compound,CC50 (in vitro) [nM],EC50 [1] [nM]
"C[C@H]1/C=C\COc2cc(F)c(F)c3c2C(c2ccccc2SC3)N2CN1C(=O)c1c(O)c(=O)ccn12 (single isomer, unassigned) [Compound 162D, (13*S,21a*S,*Z)-24,25-difluoro-16-hydroxy-13-methyl-6,10,13,21a-tetrahydro-7,8-(epiprop[1]en[1]yl[3]ylidene)-14,21-methanobenzo[6,7]thiepino[4,5-c]pyrido[1,2-f][1]oxa[5,6,9]triazacyclotridecine-15,17-dione]",> 100,0.51
"O=C1c2c(O)c(=O)ccn2N2CN1[C@@H](C(F)F)/C=C/COc1cccc3c1[C@@H]2c1ccccc1SC3 (single isomer, unassigned) [Compound 163BA, (9*R,17a*R,*E)-9-(difluoromethyl)-12-hydroxy-2,6,9,17a-tetrahydro-3,4-(epiprop[1]en[1]yl[3]ylidene)-10,17-methanobenzo[6,7]thiepino[4,5-c]pyrido[1,2-f][1]oxa[5,6,9]triazacyclotridecine-11,13-dione]",> 100,> 50
"O=C1c2c(O)c(=O)ccn2N2CN1[C@H](C(F)F)/C=C/COc1cccc3c1[C@@H]2c1ccccc1SC3 (single isomer, unassigned) [Compound 163BB, (9*S,17a*R,*E)-9-(difluoromethyl)-12-hydroxy-2,6,9,17a-tetrahydro-3,4-(epiprop[1]en[1]yl[3]ylidene)-10,17-methanobenzo[6,7]thiepino[4,5-c]pyrido[1,2-f][1]oxa[5,6,9]triazacyclotridecine-11,13-dione]",> 100,> 50
"CC[C@H]1CCCOc2c(ccc(F)c2F)[C@@H](c2ccccc2)N2CN1C(=O)c1c(O)c(=O)ccn12 (single isomer, unassigned) [Compound 164A, (9*S,18*R)-9-ethyl-3,4-difluoro-12-hydroxy-18-phenyl-6,7,8,9-tetrahydro-18H-10,17-methanobenzo[b]pyrido[1,2-f][1]oxa[5,6,9]triazacyclotridecine-11,13-dione]",> 100,> 50
"CC[C@@H]1CCCOc2c(ccc(F)c2F)[C@H](c2ccccc2)N2CN1C(=O)c1c(O)c(=O)ccn12 (single isomer, unassigned) [Compound 164B, (9*R,18*S)-9-ethyl-3,4-difluoro-12-hydroxy-18-phenyl-6,7,8,9-tetrahydro-18H-10,17-methanobenzo[b]pyrido[1,2-f][1]oxa[5,6,9]triazacyclotridecine-11,13-dione]",> 100,2.4
"O=C1c2c(O)c(=O)ccn2N2CN1C/C=C\COc1c(ccc(F)c1F)[C@H]2c1ccccc1C(F)F (single isomer, unassigned) [Compound 165A, (18*R,Z)-18-(2-(difluoromethyl)phenyl)-3,4-difluoro-12-hydroxy-6,9-dihydro-18H-10,17-methanobenzo[b]pyrido[1,2-f][1]oxa[5,6,9]triazacyclotridecine-11,13-dione]",> 100,7.2
"O=C1c2c(O)c(=O)ccn2N2CN1C/C=C\COc1c(ccc(F)c1F)[C@@H]2c1ccccc1C(F)F (single isomer, unassigned) [Compound 165B, (18*S,*Z)-18-(2-(difluoromethyl)phenyl)-3,4-difluoro-12-hydroxy-6,9-dihydro-18H-10,17-methanobenzo[b]pyrido[1,2-f][1]oxa[5,6,9]triazacyclotridecine-11,13-dione]",> 100,> 50
"O=C1c2c(O)c(=O)ccn2N2CN1C1(/C=C/COc3cc(F)c(F)c4c3[C@@H]2c2ncccc2SC4)CCC1 (single isomer, unassigned) [Compound 168A, (21a′*R,*E)-24′,25′-difluoro-16′-hydroxy-6′,21a′-dihydro-10′H-spiro[cyclobutane-1,13′-[7,8](epiprop[1]en[1]yl[3]ylidene)[14,21]methanopyrido[1,2-f]pyrido[2′,3′:6,7]thiepino[4,5-c][1]oxa[5,6,9]triazacyclotridecine]-15′,17′-dione]",> 100,> 50
